# According to patent publication US20140256015A1, “CAGED COMPOUND WHICH CAN BE PHOTOACTIVATED SELECTIVELY FOR CELL TYPES” (Toho University, priority 2013, published 2014):
# Key:
# β-Gal = β-Gal (Escherichia coli, UniProt P00722); assay: Conversion of Gal-Bhcmoc-propargyl to Bhcmoc-propargyl in the presence of β-Gal, followed by HPLC; format: biochemical; conditions: 15 μM compound, β-Gal 0.25 ng/μL, 0.1 M phosphate buffer pH 7.3, 37° C., after 1 hour
# Procedure: To 0.1 M phosphate buffer (pH 7.3) containing Gal-Bhcmoc-propargyl (final concentration of 15 μM), mercaptoethanol (0.11 M), and magnesium chloride (1 mM), β-Gal was added to a final concentration of 0.25 ng/μL. While the reaction solution was kept at 37° C., the reaction progress was followed by HPLC (see Table 2 for analytical conditions).
# [1] = Photocleaving by 405 nm photoirradiation, monitored by C18 reverse phase HPLC; format: physicochemical; conditions: 10^−5 M KMOPS solution (0.1% DMSO, pH 7.3), irradiation 0 to 30 s (Bhcmoc-propargyl) or 0 to 300 s (Gal-Bhcmoc-propargyl)
# Source text: The 10^−5 M KMOPS solution (0.1% DMSO, pH 7.3) of Gal-Bhcmoc-propargyl or Bhcmoc-propargyl was irradiated with light with 405 nm. The reaction progress was monitored over photoirradiation time by C18 reverse phase HPLC.
# [2] = UV spectrum (absorption wavelengths); format: physicochemical; conditions: 10^−5 M KMOPS solution (0.1% DMSO, pH 7.3)
# Procedure: UV spectra were measured for the 10^−5 M KMOPS solution (0.1% DMSO, pH 7.3) of Gal-Bhcmoc-propargyl and the 10^−5 M KMOPS solution (0.1% DMSO, pH 7.3) of Bhcmoc-propargyl.
# Chain of β-Gal (P00722 2-1024): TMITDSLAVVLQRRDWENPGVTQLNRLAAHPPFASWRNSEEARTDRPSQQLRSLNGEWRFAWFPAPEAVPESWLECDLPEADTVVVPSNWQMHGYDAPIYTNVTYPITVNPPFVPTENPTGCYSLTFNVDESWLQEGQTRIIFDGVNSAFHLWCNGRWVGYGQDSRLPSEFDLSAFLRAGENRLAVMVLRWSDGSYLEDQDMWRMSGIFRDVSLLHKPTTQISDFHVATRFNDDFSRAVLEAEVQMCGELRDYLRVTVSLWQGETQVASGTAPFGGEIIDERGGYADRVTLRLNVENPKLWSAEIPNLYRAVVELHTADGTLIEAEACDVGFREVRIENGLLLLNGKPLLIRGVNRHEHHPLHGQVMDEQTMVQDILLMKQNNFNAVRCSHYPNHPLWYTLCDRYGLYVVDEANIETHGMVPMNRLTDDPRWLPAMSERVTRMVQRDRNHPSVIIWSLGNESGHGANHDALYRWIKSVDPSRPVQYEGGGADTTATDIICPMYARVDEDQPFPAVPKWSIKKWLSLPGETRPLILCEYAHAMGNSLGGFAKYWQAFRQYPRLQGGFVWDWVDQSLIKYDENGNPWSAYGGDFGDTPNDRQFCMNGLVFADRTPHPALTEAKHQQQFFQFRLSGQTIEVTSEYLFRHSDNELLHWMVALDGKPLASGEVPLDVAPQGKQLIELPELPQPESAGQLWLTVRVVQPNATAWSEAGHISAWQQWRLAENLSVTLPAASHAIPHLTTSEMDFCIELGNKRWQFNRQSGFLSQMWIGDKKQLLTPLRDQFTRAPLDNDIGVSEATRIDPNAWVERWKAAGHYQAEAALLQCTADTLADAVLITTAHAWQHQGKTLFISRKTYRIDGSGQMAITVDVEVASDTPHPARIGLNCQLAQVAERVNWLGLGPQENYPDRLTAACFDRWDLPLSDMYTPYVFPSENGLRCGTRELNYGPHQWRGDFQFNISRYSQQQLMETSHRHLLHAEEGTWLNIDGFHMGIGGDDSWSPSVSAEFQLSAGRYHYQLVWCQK
compound,measurement,setting,value
C#CCNC(=O)OCc1cc(=O)oc2cc(O[C@@H]3O[C@H](CO)[C@H](O)[C@H](O)[C@H]3O)c(Br)cc12 [Gal-Bhcmoc-propargyl],conversion to Bhcmoc-propargyl (Bhc group) by β-Gal,β-Gal,completely converted
same,photocleaving (decrease of compound) on 405-nm photoirradiation,[1],no decrease was confirmed
"C#CCNC(=O)OCc1cc(=O)oc2cc(O)c(Br)cc12 [Bhcmoc-propargyl, (6-bromo-7-hydroxycoumarin-4-yl)methoxycarbonylpropargylamide]",photocleaving (decrease of compound) on 405-nm photoirradiation,[1],decreases in Bhcmoc-propargyl and increases in the photocleaved product could be confirmed
same,εmax,[2],17400 M⁻¹ cm⁻¹
same,λmax,[2],369 nm
